Test results: patent US20190078052A1, “ENGINEERED ADHESIVE SUBSTRATES FOR HIGH-THROUGHPUT CELL ISOLATION AND SEPARATION” (ARIZONA BOARD OF REGENTS ON BEHALF OF ARIZONA STATE …, priority 2016, published 2019)
“Also recorded” adds a separate entry of the source.

Legend:
T24 3D-DTMs [1] = test: Transfer of dormant T24 3D-DTMs from AM3 to AM1 Amikagel: cell escape, filopodia, microcolony formation; type: cell-based; settings: for formation of micrometastasis-like nodules / microcolonies: 100 μM pre-treated, 15 days after transfer to AM1
Description: 1 ml of amikagel AM1, AM2 and AM3 pre-gel solutions were filtered through a 0.20 μm filter and 40 μL of the filtrate was added to each well of a 96 well plate. The plates were sealed with paraffin tape (Parafilm, Menasha, Wis.) and incubated in an oven maintained at 40° C. for 7.5 hours. After gelation, the surfaces of Amikagels were washed with 150 μL of Nanopure® water for 12 hours, in order to remove traces of unreacted monomers.
All 3DTM (3D tumor microenvironments) experiments were set up by liquid overlay culture (2) of cells on top of Amikagel surface in a total volume of […] media/well; either 100,000 cancer cells alone (single culture) or 50,000 stromal cells followed by 50,000 cancer cells (co-culture) were incubated, unless indicated otherwise in specific cases. After 48 hours of incubation, 50% of the media in the wells was replaced with fresh media i.e. DMEM/RPMI+10% (v/v) FBS+1% (v/v) Pen-Strep at regular intervals of 48 hours. Care was taken to withdraw and add the media slowly so as to not perturb 3DTM formation. Fresh media was added every 48 hours following cell plating. For 3DTM generation on 24 well plates, 400 μL of pre-gel volume was used instead of 40 μl. Different co-culture 3DTM systems are represented as fibroblast/stromal cells-epithelial cells (e.g. NIH3T3-T24, WPMY-1-T24) to accurately indicate the sequence of their addition. In most cases, 3DTMs were formed 5-7 days following culture on Amikagels.
T24 3DTMs were first formed on AM3, and transferred to AM1s on the seventh day following initial cell seeding, in order to investigate the role of chemo-mechanical properties of Amikagels on 3DTM fate, and migration of metastatic cells out of the 3DTM spheroid. Upon transfer, cells from 3DTMs were monitored for cell spreading and motility on the gel for an additional 7 days. After 7 days, cell cycle analysis and N-cadherin analysis was carried out on the all 3DTMs. Long-term experiments were also carried out where 3D-DTMs were continuously monitored for 15 days after their transfer from AM3 gel to AM1 gel.

T24 3D-DTMs [2] = test: Cell cycle analysis of T24 3D-DTMs by propidium iodide flow cytometry; type: cell-based
Description: Following five days of incubation on AM3, 3DTMs of T24 cells with NIH3T3 murine fibroblast cells were harvested for cell cycle analysis. Four or five individual 3DTMs of T24 cells alone or UMUC3 cells alone were harvested on the 7th day after seeding on Amikagels, collected in an eppendorf tube. 50 μL of 5 mg/ml collagenase was added to 3DTMs prepared using fibroblast helper cells for 30 minutes at 37° C. in order to facilitate their disassembly by gentle pipetting. Single cell 3DTMs were disassembled using manual pipetting.
Disassembled 3DTM cells were then centrifuged at 200 r.c.f. in order to collect the cell pellet. The pellet was resuspended in a solution of 1% v/v 1× Triton-X, 5% (v/v) fetal bovine serum (FBS), 50 μg/mL propidium iodide, and 0.006-0.01 units/mL ribonuclease A. After incubation for 30 minutes on ice, cells were analyzed for their cell cycle profiles using flow cytometry; the propidium iodide (PI) signal was detected using an excitation at 535 nm and emission at 617 nm.
Voltages of the FL2-A, SSC and FSC channels were adjusted in order to obtain best representative peaks for alignment of 2n (diploidy−G0/G1) peak to 200 intensity units during flow cytometry. FL2A (FL2-Area) provides the information regarding the pulse area of the emitted fluorescence signal (total cell fluorescence) whereas SSC and FSC provide the information regarding the […] light from the sample. FSC is a measure of diffracted light from the sample proportional to cell surface area or size and SSC is proportional to cell granularity or internal complexity.

T24 3D-DTMs [3] = test: Viability of T24 3D-DTMs after docetaxel treatment; type: cell-based; settings: following treatment
phospho-AKT = settings: cited from earlier work
phospho-FAK = settings: cited from earlier work
cdc42 = cdc42 (Homo sapiens, UniProt P60953); settings: other cancer cell lines; cited from earlier work
Sequence of cdc42 (P60953 whole entry, species assumed): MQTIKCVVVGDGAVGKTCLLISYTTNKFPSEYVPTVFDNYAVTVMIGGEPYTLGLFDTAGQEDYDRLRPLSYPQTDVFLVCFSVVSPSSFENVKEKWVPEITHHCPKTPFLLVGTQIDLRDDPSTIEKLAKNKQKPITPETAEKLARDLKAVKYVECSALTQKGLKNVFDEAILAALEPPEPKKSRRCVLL

SMILES: CC(=O)O[C@@]12CO[C@@H]1C[C@H](O)[C@@]1(C)C(=O)[C@H](O)C3=C(C)[C@@H](OC(=O)[C@H](O)[C@@H](NC(=O)OC(C)(C)C)c4ccccc4)C[C@@](O)([C@@H](OC(=O)c4ccccc4)[C@H]21)C3(C)C [Docetaxel, docetaxel]
- cellular escape from the mother 3D-DTM (T24 3D-DTMs [1]; 12.5 μM-100 μM): significantly reduced
- formation of micrometastasis-like nodules / microcolonies (T24 3D-DTMs [1]): significantly reduced cell escape and microcolony formation
- formation of micrometastasis-like nodules / microcolonies (T24 3D-DTMs [1]; listed as docetaxel): drastically reduced
- cells escaping the mother spheroid (T24 3D-DTMs [1]; 100 μM pre-treatment on AM3, 48 hours after transfer to AM1): significantly lesser number of cells escaped
- filopodia formation on cells shed on AM1 (T24 3D-DTMs [1]; after treatment of T24 3D-DTMs): did not show filopodia formation; also recorded: not observed
- cells in the G2/M phase, treated vs untreated 3D-DTM (T24 3D-DTMs [2]; 96 hours on AM3): No significant differences
- cells in the sub-G0/G1 phase of the cell cycle, treated mother 3D-DTM (T24 3D-DTMs [2]; 96 hours on AM3): modest increase
- cell cycle profile of treated T24 3D-DTMs (T24 3D-DTMs [2]; following treatment): dormant cell cycle profile
- viability of treated T24 3D-DTMs (T24 3D-DTMs [3]): remained viable
- reduction of phospho-AKT expression compared to untreated T24 cells (phospho-AKT): ~41%
- reduction of phospho-FAK expression compared to untreated T24 cells (phospho-FAK): ~34%
- inhibition of cdc42 (cdc42): effectively inhibit
